Assay [1] deals with neutrophils. Put plainly: Inhibition of FPR2 agonist-induced superoxide by pertussis toxin or kinase inhibitors. The format is cell-based, human. The following applies: WKYMVM 50 nM, F2Pal10 500 nM. The procedure:
(§1) Human peripheral blood neutrophils were isolated from buffy coats from healthy blood donors using dextran sedimentation and Ficoll-Paque gradient centrifugation as described. The remaining erythrocytes were disrupted by hypotonic lysis, the neutrophils were washed twice, resuspended in KRG, and stored on melting ice until use. This isolation procedure permits cells to be purified with minimal granule mobilization.
(§2) The NADPH-oxidase activity was determined using isoluminol-enhanced chemiluminescence (CL), [27]. The CL activity was measured in a six-channel Biolumat LB 9505 (Berthold Co., Wildbad, Germany), using disposable 4-ml polypropylene tubes with a 900 µl reaction mixture containing 10^5 cells, isoluminol (2×10^−5 M) and HRP (2 U). The tubes were equilibrated in the Biolumat for 5 min at 37°C, after which the stimulus (100 µl) was added and the light emission was recorded continuously. Receptor desensitized cells were defined as naïve (non-desensitized) cells that had first been stimulated with a receptor specific agonist and returned to baseline after the resulting release of superoxide before a second stimulation. When reactivation experiments were performed with antagonists, the antagonists were added to the CL reaction mixture 1 min before the second stimulation. For studies with signaling inhibitors, cells were incubated with inhibitors at 37°C for 15 min before agonist addition. Control cells received no treatment but were incubated under the same conditions.
A. Primary human neutrophils were treated with pertussis toxin (PTX, 500 ng/ml final concentration) and samples were withdrawn at indicated time points. […] As a control, the PMA response (5×10^−8 M final concentration) from control cells (120 min incubation without PTX, solid line in the inset) or treated with PTX for 120 min (dashed line in the inset) is shown. Superoxide production (peak values) from pertussis toxin treated neutrophils was compared to that from non-treated control cells. A representative experiment out of more than five is shown. B and C. Fluo-3-AM/FuraRED labeled neutrophils were incubated without any additive (solid lines) or with EGTA (2 mM; dotted lines). […] Traces of representative calcium responses are shown and at least three experiments have been performed. Abscissa, time of study (sec); ordinate, fluorescence (arbitrary unit). D. Primary human neutrophils were incubated with different pharmacological kinase inhibitors (1 µM final concentration) for 15 min at 37°C. Control cells were incubated at the same condition but received no inhibitors. […] Data are presented as % inhibition compared to the control response (peak values of superoxide production were used, mean±SEM, n = 3).
The effects of these inhibitors were determined using different concentrations ranging from 20 nM to 1 µM.

In assay [2] the test system is neutrophils. Put plainly: Priming of FPR2 agonist-induced superoxide response. The assay is classed as cell-based, human. The following applies: for priming effect on F2Pal10-induced superoxide / priming effect on WKYMVM-induced superoxide: versus non-primed cells, n = 3; for priming effect on WKYMVM-induced superoxide: WKYMVM 50 nM. The procedure: as §1, §2
A. A representative experiment of an F2Pal10 induced response in control (solid line) and latrunculin A treated neutrophils (dashed line) is shown. The time point for addition of F2Pal10 is indicated by an arrow. Abscissa: Time of study (min); ordinate: Superoxide production (Mcpm). […] A non-priming cut-off line (fold increase = 1) is included as a horizontal broken line in the figure.

The test system of assay [3] is desensitized FPR2. Put plainly: PAF-induced cross-talk reactivation of desensitized FPR2 (superoxide). The assay is classed as cell-based, human. The settings on record: PAF 100 nM. The procedure:
as §1, §2
Figure 3 PAF- or ATP-stimulation induces reactivation of desensitized FPR2. […] A representative experiment is shown and the time point for addition of FPR2 agonists is indicated by the first arrow, the time point for PAF stimulation (100 nM final concentration) with the second arrow. The control PAF response induced in naïve (non-desensitized) neutrophils is shown for comparison (dotted line). Abscissa: Time of study (min); ordinate: Superoxide production (Mcpm). B. Naïve neutrophils were first desensitized with F2Pal10 (F2Pal10des., 500 nM final concentration) and subsequently stimulated with PAF (100 nM final concentration; time point for PAF addition is indicated by an arrow). The FPR2 specific inhibitor PBP10 (1 µM) was added 1 min prior to PAF stimulation (dashed line) and the release of superoxide anions was recorded continuously. The PAF responses induced in naïve cells (solid line), as well as in F2Pal10-desensitized cells receiving no PBP10 (dotted line), are shown for comparison. Abscissa: Time of study (min); ordinate: Superoxide production (Mcpm). C. Effect of calyculin A on receptor cross-talk induced FPR2 reactivation. Cells desensitized with F2Pal10 (F2Pal10des.) were incubated with the phosphatase inhibitor calyculin A (60 nM; solid line) or buffer as control (dashed line) for 10 min at 37°C prior to PAF stimulation (100 nM). The release of superoxide anions was recorded continuously. Abscissa: Time of study (min); ordinate: Superoxide production (Mcpm). […] Abscissa: Time of study (min); ordinate: Superoxide production (Mcpm). […] The results are given as peak values of superoxide production following addition of ATPγS (mean+SEM; n = 3).
Figure 4 More pronounced reactivation was induced by PAF in neutrophils desensitized by the pepducin F2Pal10. […] The results are given as peak values of superoxide production from three separate experiments for the first stimulation with FPR2 agonists (mean+SEM, n = 3). […]

The target in assay [4] is T1, FPR2 (Homo sapiens, UniProt P25090).
T1 construct: Human peripheral blood neutrophils were isolated from buffy coats from healthy blood donors; endogenous in cells; host or cells: primary human peripheral blood neutrophils from buffy coats of healthy donors
T1 sequence (P25090 1-351): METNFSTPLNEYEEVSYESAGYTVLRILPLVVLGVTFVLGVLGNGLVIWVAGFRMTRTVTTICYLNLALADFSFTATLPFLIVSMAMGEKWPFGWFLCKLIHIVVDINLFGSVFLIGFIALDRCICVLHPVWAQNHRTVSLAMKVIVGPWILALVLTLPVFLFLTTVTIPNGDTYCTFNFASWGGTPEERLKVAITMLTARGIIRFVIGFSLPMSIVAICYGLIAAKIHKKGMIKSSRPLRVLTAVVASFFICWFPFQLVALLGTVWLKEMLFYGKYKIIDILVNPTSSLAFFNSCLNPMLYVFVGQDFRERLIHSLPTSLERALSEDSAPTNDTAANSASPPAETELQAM
Put plainly: Inhibition of F2Pal10-induced superoxide release by receptor inhibitors/antagonists. The format is cell-based. The following applies: F2Pal10 500 nM; PBP10 1 µM, cyclosporin H 1 µM; representative of more than five. The procedure:
as §1
The NADPH-oxidase activity was determined using isoluminol-enhanced chemiluminescence (CL), [27]. The CL activity was measured in a six-channel Biolumat LB 9505 (Berthold Co., Wildbad, Germany), using disposable 4-ml polypropylene tubes with a 900 µl reaction mixture containing 10^5 cells, isoluminol (2×10^−5 M) and HRP (2 U). The tubes were equilibrated in the Biolumat for 5 min at 37°C, after which the stimulus (100 µl) was added and the light emission was recorded continuously. […]
Figure 1 The F2Pal10 pepducin specifically activates FPR2. A. Primary human neutrophils were activated by F2Pal10 (500 nM) in the absence (solid line) or presence of the receptor specific inhibitor PBP10 (FPR2 specific inhibitor; 1 µM final concentration, dashed line) or the FPR1 antagonist cyclosporin H (CysH; 1 µM final concentration, dotted line) and the release of superoxide anions was recorded continuously. […] The release of superoxide anions was recorded continuously. […]

For assay [5], the target named is T2, formyl peptide receptor 2 (FPR2) (human (endogenous in neutrophils), UniProt P25090 1-351).
T2 sequence (looked up): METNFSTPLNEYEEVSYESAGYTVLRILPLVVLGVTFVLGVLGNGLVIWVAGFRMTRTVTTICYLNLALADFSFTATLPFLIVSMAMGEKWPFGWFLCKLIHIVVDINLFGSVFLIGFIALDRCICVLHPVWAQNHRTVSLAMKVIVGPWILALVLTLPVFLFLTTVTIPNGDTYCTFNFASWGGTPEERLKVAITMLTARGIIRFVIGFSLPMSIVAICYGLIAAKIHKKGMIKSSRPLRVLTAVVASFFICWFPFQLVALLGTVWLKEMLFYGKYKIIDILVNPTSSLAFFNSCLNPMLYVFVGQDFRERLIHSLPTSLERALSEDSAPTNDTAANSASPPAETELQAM
Put plainly: cell-based or functional assay.

Where no end group is shown, it is not given here. The star is where a group is joined. Palmitoyl = CCCCCCCCCCCCCCCC(=O)*

For the molecule `COC[C@H]1OC(=O)c2coc3c2[C@@]1(C)C1=C(C3=O)[C@@H]2CCC(=O)[C@@]2(C)C[C@H]1OC(C)=O` [Wortmannin], the “inhibition of F2Pal10- and WKYMVM-induced superoxide by kinase inhibitor” value in assay [1] (inhibitors 20 nM to 1 µM (1 µM shown), 15 min at 37°C, n = 3) is “Very similar degrees of inhibition”.

With `COC[C@@H]([C@H](O)[C@H](O)C(=O)NCC[C@H](C)c1nc(/C=C/C[C@@H]2O[C@]3(C[C@@H](O)[C@@H]2C)O[C@H]([C@H](C[C@H](O)[C@H](C)[C@H](O)[C@H](C)/C=C(C)/C(C)=C/C=C/C(C)=C\C#N)OC)[C@H](OP(=O)(O)O)C3(C)C)co1)N(C)C` [calyculin A], the “priming effect on F2Pal10-induced superoxide” value in assay [2] (F2Pal10 500 nM) was “Very similar priming effects”. For the same molecule, the “priming effect on WKYMVM-induced superoxide” value in assay [2] was “significantly more superoxide than non-primed control cells”. The “inhibition of PAF response in FPR2-desensitized neutrophils” value in assay [3] (inhibitor before PAF, calyculin A 60 nM 10 min at 37°C, PBP10 1 µM, WEB2086 data not shown) was “inhibited”.

As to `C/C1=C/C(=O)O[C@@H]2C[C@@H](CC[C@H](C)/C=C\C=C\CC1)O[C@@](O)([C@@H]1CSC(=O)N1)C2` [latrunculin A], the “effect on neutrophil response to F2Pal10” value in assay [2] (F2Pal10 500 nM, latrunculin A treated) was “dramatically increased and prolonged”.

As for TNFα, the “priming effect on F2Pal10-induced superoxide” value in assay [2] (F2Pal10 500 nM) was “Very similar priming effects”. The “priming effect on WKYMVM-induced superoxide” value in assay [2] is on record as “significantly more superoxide than non-primed control cells”.

Regarding cyclosporin H, in assay [4], the “inhibition of F2Pal10-induced superoxide response” value is recorded as “not affected”.

Take pertussis toxin: the “inhibition of F2Pal10- and WKYMVM-induced oxidase response by pertussis toxin” value in assay [1] (PTX 500 ng/ml, 90 and 120 min) was “largely inhibited”.

As to platelet activating factor [PAF], the “reactivation of desensitized FPR2 by PAF” value in assay [3] (FPR2-desensitized neutrophils) was “reactivates desensitized FPR2 to an actively signaling state”.

Regarding Palmitoyl-KIHKKGMIKS [F2Pal10 pepducin], in assay [5], the “maximum superoxide response of human neutrophils, relative to that induced by WKYMVM” value turned out to be 70% and the “superoxide release (NADPH-oxidase activity, isoluminol chemiluminescence) from human neutrophils, F2Pal10 50-2000 nM, EC50” value is ~300 nM.

For the origin of these results see PMC4193777 (PLoS ONE, 2014).
